Measured values from patent publication US11008619B2, “Diagnostic markers for platelet function and methods of use” (Duke University, priority 2012, dated 2021).

Tests used:
COX-1 activity = assay: Serum thromboxane B2 ELISA; type: in vivo, human; details: HV2; Final visit after 4 weeks 325 mg/day aspirin; range 0.1-2.0
Experimental: (§1) Platelet function studies. Before each visit, subjects were asked to fast and to refrain from tobacco (during the preceding 24 hrs) and alcohol or intensive exercise on the day of testing. Phlebotomy was performed after 10 minutes of resting supine with minimal trauma or stasis at the venipuncture site using a 21-gauge needle into 3.2% sodium citrate tubes. The focus of these studies was around NCDPF and thus, the NCDPF assays were defined as the following: PFA100, and epinephrine, ADP, and collagen induced LTA. […] Serum thromboxane B2 and AA induced aggregation were chosen as measures of COX-1 activity and also added in vitro aspirin to the AA aggregation assay to further assess for any evidence of unsuppressed COX-1 activity.

[1] = tested on: non COX-1 dependent platelet function (NCDPF); assay: In vitro addition of aspirin to PRP, epinephrine/ADP/collagen induced light transmittance aggregometry; type: cell-based, human; details: n=5 HV2 and n=15 DM on daily aspirin
Experimental: Light transmittance aggregometry. […] The area under the LTA curve (AUC) was chosen as the primary measure of aggregation because the AUC captures several features of the aggregometry curve that are each sensitive to the effects of aspirin: slope, maximal aggregation, and final aggregation. To standardize AUC measurements across individuals and visits the test duration was fixed at 12 minutes for epinephrine and six minutes for collagen, AA, and ADP.
Description of area under the curve (AUC) measurement. Using light transmittance aggregometry the percent aggregation is plotted over time to produce the upper curve similar to FIG. 21. The AUC is measured by the aggregometer over the duration of the test, which is fixed at 6 minutes for collagen and ADP and 12 minutes for epinephrine. Higher AUC values reflect higher maximal and residual aggregation, slope, and velocities.
In vitro aspirin. A stock solution of aspirin was created by dissolving acetylsalicylic acid (Sigma-Aldrich A5376) into DMSO and aliquots stored at −80 degrees Celsius. On the day of use, fresh aliquots were thawed, diluted in PBS, and stored at 4 degrees Celsius. […] The PRP was allowed to incubate with in vitro aspirin for 10 minutes at room temperature prior to the addition of agonist.

[2] = tested on: non COX-1 dependent platelet function (NCDPF); assay: Platelet function score (PFS) in aspirin challenge study; type: in vivo, human; details: for mean difference in Pre vs. Post PFS: before vs 3 hrs after single 325 mg aspirin, p<0.0001; for Post PFS: after first 325 mg dose
Experimental: A group of healthy adult volunteers (HV1) were recruited and a defined set of platelet function measurements, as described below, were made before aspirin (“Pre”) and 3-hrs after (“Post”) a single 325 mg tablet of aspirin. Subsequently, subjects were returned for a final assessment (“Final”) 2 weeks after 325 mg/day aspirin. This dose of aspirin was chosen to ensure complete suppression of platelet COX-1 activity in each participant. The 3-hour timepoint was chosen to measure the maximal inhibitory effect of aspirin.
as §1
(§2) Light transmittance aggregometry. Light transmittance aggregometry (LTA) was performed as previously described (Born (1964) Nature 202:95-96) using the following agonists: arachidonic acid (AA, Chrono-log, 0.5 mM), epinephrine (Chrono-Log, 10, 1, and 0.5 μM), ADP (Chrono-Log, 10, 5, and 1 μM), and collagen (Chrono-Log, 5 and 2 μg/ml). The area under the LTA curve (AUC) was chosen as the primary measure of aggregation because the AUC captures several features of the aggregometry curve that are each sensitive to the effects of aspirin: slope, maximal aggregation, and final aggregation. To standardize AUC measurements across individuals and visits the test duration was fixed at 12 minutes for epinephrine and six minutes for collagen, AA, and ADP.
Platelet Function Analyzer. PFA100 closure time with the use of the collagen/epinephrine cartridge was performed. […] Briefly, citrated whole blood was placed in the PFA100 chamber and blood was aspirated through an aperture in a collagen/epinephrine coated membrane. The amount of time (in seconds[s], up to a maximum of 300 s) until blood ceased to flow through the membrane aperture was recorded as the final result.
Platelet Function Score. […] A platelet function score was derived from a principal components analysis (PCA) of all platelet function measurements made in the HV1 cohort. PCA was chosen to quantify this biological factor. PCA is an unbiased, mathematical technique for reducing a collection of measurements down to a single “meta-measurement” that best describes the aggregate behavior of the set. For example, in the biological sciences, PCA can quantify population substructure in genome wide association studies, patterns of gene expression in microarray experiments, and metabolic pathways in metabolomic studies. In the present study, the input into the PCA was the following set of non-imputed measures from the HV1 cohort: the PFA100 closure time and the AUC from each concentration of ADP, epinephrine, and collagen LTA.

[3] = tested on: COX-1 dependent platelet function; assay: Arachidonic acid-induced platelet aggregation (light transmittance aggregometry), with and without in vitro aspirin; type: in vivo, human
Experimental: as §1, §2

[4] = tested on: human promyelocytic cell line (HL60); details: HL60, in vitro aspirin vs vehicle-only control; cited from earlier work
[5] = tested on: RUNX1 P1 and total transcripts in purified platelets; assay: Platelet RNA RT-PCR for RUNX1 transcripts before and after aspirin exposure; type: in vivo, human; details: healthy volunteers, before vs after aspirin exposure
Experimental: Platelet purification and RNA isolation.
RNA was extracted from peripheral blood derived platelets using the miRvana miRNA Isolation Kit (Life Technologies) with acid-phenol chloroform (Life Technologies) separation. Due to the low concentration of available platelet RNA, concentration and integrity were assessed using the Agilent 2100 Bioanalyzer Pico chips (Agilent Technologies; Santa Clara, Calif.). The concentration was too low for accurate determination via standard spectrophotometric methods and for the Agilent Pico RIN algorithm to accurately determine a RIN quality score. As a result, quality was assessed by visualization of the Bioanalyzer lane curve. RNA samples with obvious 18S and 28S peaks, minimal degradation “noise” between peaks, and no large aberrant peaks above or below the 18S and 28S bands were selected for further analysis. […]
Concentration and integrity of available platelet RNA were assessed using Agilent 2100 Bioanalyzer Pico chips (Agilent Technologies; Santa Clara, Calif.). […] As a result, quality was assessed by visualization of the Bioanalyzer trace. […]
A loading test plate was run using 4 samples; 2 from each experimental group. […] Optimal loading would result in expression of our lowest targets of interest resulting in Cq values <35, abundant transcripts >18 and a minimal loss of low quantity samples to high RNA loading requirements. […]

For `CC(=O)Oc1ccccc1C(=O)O` [aspirin, acetylsalicylic acid], which “serum thromboxane B2 mean concentration” value (COX-1 activity) is on record?
Its value is 0.3 ng/mL.

What about the “mean change aggregation with in vitro aspirin” value (shortened to “mean change aggregation”) ([1]; ADP 5 μM, CI −6.9-2.4%, p=0.3) of the same compound?
Its value is −2.3%.

And the “mean change aggregation” value ([1]; collagen 2 mg/ml, CI −6.9, 10.0, p=0.71)?
Its value is 1.5%.

And the “mean change aggregation” value ([1]; epinephrine 0.5, CI −0.8-4.8%, p=0.2)?
Its value is 2.0%.

And the “mean difference in Pre vs. Post PFS” value ([2]; DM diabetics, 95% CI 3.6-4.8)?
The value was 4.2.

And the “mean difference Post and Final PFS” value ([2]; HV1, after two weeks of 325 mg/day aspirin, shifted higher, CI 0.1-0.8, p=0.01)?
Its value is 0.5.

What about the “mean difference in Pre vs. Post PFS” value ([2]; HV1 healthy volunteers, 95% CI 3.0-3.7) of the same compound?
The value was 3.4.

What about the “mean difference between Post and Final PFS” value ([2]; HV2, after four weeks of 325 mg/day aspirin, shift to higher PFS, CI 0.2-1.2, p=0.004) of the same compound?
The value was 0.7.

What about the “mean difference in Pre vs. Post PFS” value ([2]; HV2 healthy volunteers, 95% CI 4.5-5.2) of the same compound?
Its value is 4.8.

What about the “Post PFS” value ([2]; HV2 subjects that decreased their Final PFS) of the same compound?
Its value is 1.68.

What about the “Post PFS” value ([2]; HV2 subjects that increased their Final PFS) of the same compound?
The value was −1.0.

What about the “AAA median % aggregation” value ([3]; HV2 and DM subjects, Final visit on daily 325 mg aspirin, range 0-7%) of the same compound?
The value was 3.0%.

And the “effect of in vitro addition of aspirin on AAA” value ([3]; in vitro aspirin 53 μM added after 325 mg oral dose, HV2 and DM)?
Its value is “no further effect”.

And the “COX-1 dependent platelet function, as assessed by AAA” value ([3]; single 325 mg dose, all HV2 and DM subjects, AA 0.5 mM)?
Its value is “effectively suppressed”.

What about the “expression of a P1-specific RUNX1 probe set” value [4] of the same compound?
The value was “increased”.

And the “expression of the remaining RUNX1 probe sets” value [4]?
The value was “did not change”.

What about the “expression of two P2 RUNX1 probe sets” value [4] of the same compound?
Its value is “decreased”.

What about the “change in total RUNX1 gene expression” value [5] of the same compound?
Its value is “minimal changes”.

And the “up (or down) regulation in P1 RUNX1 expression” value [5]?
Its value is at most 5 fold.
